Test results taken from patent US20180243304A1, “PHARMACEUTICAL COMBINATIONS COMPRISING (A) THE CYCLIN DEPENDENT KINASE 4/6 (CDK4/6) INHIBITOR LEE011 (=RIBOCICLIB), AND (B) THE EPIDERMAL GROWTH FACTOR RECEPTOR (EGFR) INHIBITOR ERLOTINIB, FOR THE TREATMENT OR PREVENTION OF CANCER” (Novartis AG, priority 2015, published 2018).

Columns and labels:
LS411N = experiment: Cell proliferation (cell count by microscopy), LS411N; format: cell-based; details: Homo sapiens, LS-411N; LS411N (BRAF), 72 h treatment, single agent tested 13 nM-10 μM; 50% of cell counts relative to DMSO
Description: (§1) The debris counts were subtracted from raw nuclei counts.
(§2) The model input were inhibition values per drug dose: […]

[1] = test system: 15 colorectal cancer cell lines; details: single agent, 13 nM-10 μM
Description: The compounds were dissolved in 100% DMSO (Sigma, Catalog number D2650) at concentrations of 20 mM and stored at -20° C. until use.
All cell line media were supplemented with 10% FBS (HyClone, Catalog number SH30071.03).
Cell lines were cultured in 37° C. and 5% CO2 incubator and expanded in T-75 flasks. In all cases cells were thawed from frozen stocks, expanded through ≤1 passage using 1:3 dilutions, counted and assessed for viability using a ViCell counter (Beckman-Coulter) prior to plating. […] All cell lines were determined to be free of mycoplasma contamination as determined by a PCR detection methodology performed at Idexx Radil (Columbia, Mo., USA) and correctly identified by detection of a panel of SNPs.
The compound's effect on cell proliferation was calculated from the cell counts of the treatments relative to the cell counts of the negative control (DMSO), in FIG. 1 denoted as ‘Normalized cell count’ (=‘xnorm’) on the y-axis. […] The model input were inhibition values per drug dose:
I=1-xnorm • I: Inhibition • xnorm: normalized cell count (median of three replicates) […]
C=ΣConc(Idata*(Idata−Imodel)) • Idata: measured inhibition • Imodel: inhibition according to HSA null hypothesis
Robust combination z-scores (zC) were calculated as the ratio of the treatments' combination scores C and the median absolute deviation (mad) of non-interacting combinations: […]

SW480 = experiment: Cell proliferation (cell count by microscopy), SW480; format: cell-based; details: Homo sapiens; SW480 (KRAS), 72 h treatment, single agent tested 13 nM-10 μM; 50% of cell counts relative to DMSO
Description: as §1, §2

HT-29 = experiment: Cell proliferation (cell count by microscopy), HT-29; format: cell-based; details: Homo sapiens; HT-29 (BRAF, PIK3CA), 72 h treatment, single agent tested 13 nM-10 μM; 50% of cell counts relative to DMSO
Description: as §1, §2

SW837 = experiment: Cell proliferation (cell count by microscopy), SW837; format: cell-based; details: Homo sapiens; SW837 (KRAS), 72 h treatment, single agent tested 13 nM-10 μM; 50% of cell counts relative to DMSO
Description: as §1, §2

RKO = experiment: Cell proliferation (cell count by microscopy), RKO; format: cell-based; details: Homo sapiens; RKO (BRAF, PIK3CA), 72 h treatment, single agent tested 13 nM-10 μM; 50% of cell counts relative to DMSO
Description: as §1, §2

LoVo = experiment: Cell proliferation (cell count by microscopy), LoVo; format: cell-based; details: Homo sapiens; LoVo (KRAS), 96 h treatment, single agent tested 13 nM-10 μM; 50% of cell counts relative to DMSO
Description: as §1, §2

COLO-205 = experiment: Cell proliferation (cell count by microscopy), COLO-205; format: cell-based; details: Homo sapiens; COLO-205 (BRAF), 72 h treatment, single agent tested 13 nM-10 μM; 50% of cell counts relative to DMSO
Description: as §1, §2

LIM2551 = experiment: Cell proliferation (cell count by microscopy), LIM2551; format: cell-based; details: LIM2551 (BRAF, PIK3CA), 72 h treatment, single agent tested 13 nM-10 μM; 50% of cell counts relative to DMSO
Description: as §1, §2

DLD-1 = experiment: Cell proliferation (cell count by microscopy), DLD-1; format: cell-based; details: Homo sapiens; DLD-1 (KRAS, PIK3CA), 72 h treatment, single agent tested 13 nM-10 μM; 50% of cell counts relative to DMSO
Description: as §1, §2

OUMS-23 = experiment: Cell proliferation (cell count by microscopy), OUMS-23; format: cell-based; details: OUMS-23 (BRAF), 72 h treatment, single agent tested 13 nM-10 μM; 50% of cell counts relative to DMSO
Description: as §1, §2

COLO-320 = experiment: Cell proliferation (cell count by microscopy), COLO-320; format: cell-based; details: Homo sapiens; COLO-320 (no driver mutation listed), 72 h treatment, single agent tested 13 nM-10 μM; 50% of cell counts relative to DMSO
Description: as §1, §2

LS-180 = experiment: Cell proliferation (cell count by microscopy), LS-180; format: cell-based; details: Homo sapiens, LS180; LS-180 (KRAS, PIK3CA), 72 h treatment, single agent tested 13 nM-10 μM; 50% of cell counts relative to DMSO
Description: as §1, §2

GP2d = experiment: Cell proliferation (cell count by microscopy), GP2d; format: cell-based; details: GP2d (KRAS, PIK3CA), 72 h treatment, single agent tested 13 nM-10 μM; 50% of cell counts relative to DMSO
Description: as §1, §2

HCT-116 = experiment: Cell proliferation (cell count by microscopy), HCT-116; format: cell-based; details: Homo sapiens; HCT-116 (KRAS, PIK3CA), 72 h treatment, single agent tested 13 nM-10 μM; 50% of cell counts relative to DMSO
Description: as §1, §2

cell lines in which IC50s were achieved for the concentration range tested [1]: 5/15
IC50 (SW480): > 10 µM
IC50 (HT-29): > 10 µM
IC50 (SW837): > 10 µM
IC50 (LoVo): 0.716 µM
IC50 (COLO-205): > 10 µM
IC50 (DLD-1): 7.06 µM
IC50 (COLO-320): 6.92 µM
IC50 (HCT-116): > 10 µM
SMILES: C#Cc1cccc(Nc2ncnc3cc(OCCOC)c(OCCOC)cc23)c1 [Erlotinib, N-(3-ethynylphenyl)-6,7-bis(2-methoxyethoxy)quinazolin-4-amine]
IC50 (LS411N): > 10 µM
IC50 (RKO): > 10 µM
IC50 (LIM2551): > 10 µM
IC50 (OUMS-23): > 10 µM
IC50 (LS-180): > 10 µM
IC50 (GP2d): 8.86 µM
